Results as given in patent US20130136722A1, “Methods of Ex Vivo Expansion of Blood Progenitor Cells, and Generation of Composite Grafts” (The Board of Trustees of The University of Illinois, priority 2011, published 2013).
Several values for one entry are separate records, joined by “and”; a condition that tells them apart may be missing. Equal values may be shown once.

How the values were obtained:
[1] = tested on: colony-forming cells (CFC); experiment: Colony-forming cell (CFC) assay of CMA expanded CB cells; type: cell-based, human; settings: for CFC PE (%) (Colony Forming Cell Plating Efficiency): mean ± SEM of three independent experiments
Description: (§1) Colony-forming cell (CFC) were assayed by plating 5×10^2 cells per dish in semisolid media and were counted after 14 days as described (Araki et al., 2009, Id.). The number of cobble stone area-forming cell (CAFC) was quantitated in primary and expanded CD34+ cells by plating in limiting dilution onto irradiated M2-10B4 stromal cells as described (Araki et al., 2009, Id.; Conneally et al., 1997, Proc. Natl. Acad. Sci. USA. 94: 9836-9841; Taswell, 1981, J. Immunol. 126: 1614-1619).
(§2) In order to determine the a correlation between expansion of CD34^+CD90^+ cells and their functional potential as pluripotent hematopoietic stem cells, in vitro functional assays were performed, including assessment of colony-forming cells (CFC), a short-term assay, and cobblestone-area forming cells (CAFC), a long-term assay.

[2] = tested on: cobblestone area-forming cells (CAFC); experiment: Cobblestone area-forming cell (CAFC) assay, limiting dilution on M2-10B4 stromal cells; type: cell-based, human; settings: for CAFC Frequency/10^4 cells: limiting dilution, mean ± SEM of three independent experiments
Description: as §1, §2

[3] = tested on: NOD/SCID mice; experiment: NOD/SCID transplantation assay: in vivo hematopoietic reconstitution by expanded CB cells; set-up: species or system mouse
Description: Immunodeficient nonobese diabetic/ltsz-scid/scid (NOD/SCID) mice were purchased from Jackson Laboratories (Bar Harbor, Me.) and transplantation assays were performed as described (Araki et al., 2009, Id.; Araki et al., 2007, Id.; Taswell, 1981, Id.). Equal number of primary CD34^+ cells or the progeny of an equal initial number of CD34^+ cells following culture were injected per mouse intravenously. Mice were sacrificed 8 weeks after transplantation, and bone marrow (BM) cells from each mouse were analyzed by flow cytometry to detect multilineage human cell engraftment.
Furthermore, hematopoietic stem cell potency of CMA-treated cord blood cells was evaluated in vivo by assaying hematopoietic repopulation potential of CD34^+ cells expanded with various CMAs. In these experiments, non-obese diabetic/severely combined immunodeficient (NOD/SCID) mice were transplanted with primary CD34^+ cells or the equivalent starting number of CD34^+ cells expanded in culture media supplemented by cytokines alone or in combination with 5azaD/TSA, VPA or 5azaD/VPA. […] Cells from cultures expanded with cytokines and VPA were capable of human hematopoietic engraftment in 2 out of 7 mice with a barely detectable level of chimerism (0.11%, 0.14%) (FIG. 2C).

[4] = tested on: genes implicated in HSC self-renewal, differentiation, expansion and maintenance; experiment: Real time quantitative PCR of gene transcripts in re-isolated expanded CD34+ cells; type: cell-based, human
Description: RNA preparation and real time quantative PCR assays were performed using SYBR green dye (Life Technologies; Carlsbad, Calif.) and an ABI 7500 Fast Real-Time PCR system (Life Technologies) were used to quantitate gene expression in reverse-transcribed mRNA as described (Araki et al., 2007, Id.). Gene expression was calculated by relative quantitation, and all results were normalized to expression of GAPDH.
To investigate whether treating cells with CMA altered gene expression, transcript levels of several genes associated with hematopoietic stem cell (HSC) self-renewal and differentiation were compared in unmanipulated primary CD34^+ cells (day 0) and CD34^+ cells expanded in the presence or absence of CMA (5azaD/TSA) during ex vivo culture. […] In the absence of 5azaD/TSA treatment, transcript levels of these genes were reduced over the course of 9 days of culture, correlating well with poor in vivo hematopoietic reconstitution capacity of untreated cells compared to unmanipulated primary or 5azaD/TSA expanded CD34^+ cells. […] In addition, transcript levels of CDK inhibitor P21, which regulates the G1/S transition of the cell cycle, was reduced in CD34^+ cells expanded in the absence of CMAs, but was not reduced in 5azaD/TSA expanded cells (p=0.06). Reduced P21 levels are generally associated with shorter G1/S transition and faster rate of cell divisions. […] This was also consistent with previous results showing membrane tracking dye as well as bromodeoxyuridine (BrdU) pulse chase assays of CD34^+CD90^+ cells during expansion culture (Araki et al., 2007, Blood 109: 3570-78).

[5] = tested on: LTB4; experiment: LTB4 in conditioned media by AChE competitive ELISA; type: cell-based, human; settings: day 9 of expansion culture; FIG. 4E
Description: The concentration of LTB4 in conditioned media was measured by an acetylcholine esterase competitive enzyme immunoassay following the manufacturer's instructions (Cayman Chemical Co. Ann Arbor, Mich.). Absorbance at 405 nm was read using ELx 800, instrument (Bio Tek Instruments Inc.). Results were calculated using mean values of triplicate wells with standard errors (SE).

[6] = tested on: LINE-1; experiment: Global DNA methylation (LINE-1) by pyrosequencing; type: cell-based, human; settings: CD34+ cells at day 3 of culture; FIG. 6A
Description: (§3) DNA methylation analysis was performed by EpigenDx (Worcester, Mass.) using quantitative pyrosequencing and the PSQ-HS96 system according to standard procedures (Warren et al., 2010, Cell Stem Cell. 7: 618-630). Primers were developed for the CpG sites near the promoter area as detailed in Table 3. Briefly, genomic DNA was isolated from primary or CMA expanded enriched CD34^+ cells using the Blood and Cell Culture DNA kit (Qiagen, Valencia Calif.). Genomic DNA was bisulfite treated by an EZ Methylation Kit (Zymo Research, Irvine, Calif.), and biotinylated gene specific primers or long interspersed nucleotide element 1 (LINE-1) primers were used to amplify regions of interest for analysis as described (Bhatia et al., 1997, J Exp Med. 186: 619-624).
Global methylation of genomic DNA was quantified by assaying long interspersed nucleotide element 1 (LINE 1) methylation as a surrogate marker (Yang et al., 2004, Nucleic Acids Res. 32: e38). The degree of global methylation of CD34^+ cells prior to and following ex vivo culture in the presence or absence of CMAs (5azaD/TSA and VPA) was determined in these experiments. […] CD34^+ cells cultured in 5azaD/TSA and VPA had 55.4%±2.2% and 77.2%±2.0% methylation respectively at day 3 (FIG. 6A).

[7] = tested on: promoter CpG sites (GATA1, S100A8, Cyp11A1); experiment: Pyrosequencing of promoter CpG sites of genes in expanded CD34+ cells; type: cell-based, human; settings: FIG. 5C
Description: as §3
Genomic DNA was isolated from primary, 5azaD/TSA or VPA expanded CD34^+ cells following culture using the Blood and Cell Culture DNA kit (Qiagen, Valencia Calif.). Genomic DNA was bisulfite treated by an EZ Methylation Kit (Zymo Research, Irvine, Calif.).

CCCC(CCC)C(=O)O [VPA, valproic acid]
fold expansion of primitive CFU-mix colonies ([1]; cytokines plus CMA, FIG. 2A): 13.3±4.7 fold
CFC PE (%) (Colony Forming Cell Plating Efficiency) [1]: 15.27%
CFC PE (%) (Colony Forming Cell Plating Efficiency) ([1]; listed as VPA Alone): 15.27 ± 3.66 %
fold expansion of long term (5 weeks) CAFC ([2]; FIG. 2B): 8.4±1.6 fold
CAFC Frequency/10^4 cells [2]: 14.67±0.74 /10^4 cells
CAFC Frequency/10^4 cells ([2]; listed as VPA Alone): 14.67 ± 0.74 /10^4 cells
regenerative capacity (in vivo hematopoietic reconstitution function) of expanded CD34+ cells ([3]; Day 9 expanded CD34+ cells): possessing regenerative potential
multilineage differentiation of expanded cells following transplantation ([3]; FIG. 2D): retained the ability to differentiate into both myeloid and lymphoid lineages
mice with human hematopoietic engraftment of mice transplanted ([3]; cells expanded with cytokines plus CMA, i.v., analysed 8 weeks after transplantation, FIG. 2C): 2 out of 7
human hematopoietic chimerism (human CD45+ cells in mouse bone marrow) ([3]; engrafted recipient mice, FIG. 2C): 0.11% and 0.14%
transcript levels of Alox5 in contrast to CD34+ cells expanded in 5azaD/TSA [4]: significantly higher
transcript levels of S100A8 and Alox5 in contrast to controls ([4]; FIGS. 5A, 5B): increased
transcript levels of GATA1 compared with control cultures ([4]; day 3, FIG. 3B): significantly increased
level of leukotriene B4 (LTB4) in conditioned medium [5]: increased compared to control
mean LINE 1 methylation (four CpG sites) [6]: 77.2%
methylation levels of S100A8 and Cyp11A1 gene promoter sites [7]: almost completely lacked any changes in methylation
methylation of the GATA1 gene promoter [7]: minimal demethylation
